The Kd is the equilibrium constant for the complex coming apart. A low value points to a tighter complex. Broadly, the IC50 is the concentration at which inhibition is half-maximal.

In assay [1] the target is T1, MoATG4 (Pyricularia oryzae, UniProt Q523C3).
T1 construct: gene ATG4
Kind of assay: biochemical.

The target of assay [2] is T2, BcATG4 (Botrytis cinerea, UniProt A6SDQ3).
T2 construct: gene atg4

The target in assay [3] is T1, MoATG4. Conditions: 10 uM compound; RT, 10 min preincubation; thiol-reactive, proposed covalent.
The target of assay [4] is T2, BcATG4. Nature of the assay: isothermal titration calorimetry.

T1 sequence (Q523C3 whole entry, looked up): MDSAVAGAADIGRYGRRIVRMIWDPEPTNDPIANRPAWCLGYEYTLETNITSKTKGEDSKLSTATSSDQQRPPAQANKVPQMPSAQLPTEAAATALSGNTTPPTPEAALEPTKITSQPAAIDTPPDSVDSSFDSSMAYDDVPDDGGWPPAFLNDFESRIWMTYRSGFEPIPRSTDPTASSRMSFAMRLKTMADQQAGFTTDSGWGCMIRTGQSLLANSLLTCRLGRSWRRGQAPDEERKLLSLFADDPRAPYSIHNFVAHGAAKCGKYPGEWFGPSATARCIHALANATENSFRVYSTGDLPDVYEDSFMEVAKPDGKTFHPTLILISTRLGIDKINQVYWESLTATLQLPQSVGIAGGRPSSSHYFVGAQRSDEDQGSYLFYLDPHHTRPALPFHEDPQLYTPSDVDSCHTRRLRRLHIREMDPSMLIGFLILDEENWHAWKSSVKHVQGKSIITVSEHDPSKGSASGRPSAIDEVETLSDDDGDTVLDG
T2 sequence (A6SDQ3 whole entry): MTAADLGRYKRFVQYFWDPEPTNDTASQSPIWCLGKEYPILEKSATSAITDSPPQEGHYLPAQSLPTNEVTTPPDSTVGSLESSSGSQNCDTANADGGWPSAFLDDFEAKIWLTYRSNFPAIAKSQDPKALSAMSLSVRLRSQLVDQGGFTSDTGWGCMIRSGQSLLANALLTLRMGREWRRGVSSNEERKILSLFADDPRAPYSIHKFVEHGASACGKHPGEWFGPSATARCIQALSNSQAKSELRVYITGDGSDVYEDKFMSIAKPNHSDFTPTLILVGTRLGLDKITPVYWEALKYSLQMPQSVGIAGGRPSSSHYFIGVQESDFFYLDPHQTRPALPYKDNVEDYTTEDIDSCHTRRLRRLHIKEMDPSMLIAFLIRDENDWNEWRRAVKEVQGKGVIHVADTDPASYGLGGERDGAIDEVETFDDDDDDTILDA

Consider `O=c1c2ccccc2[se]n1-c1ccccc1` [EB, ebselen], for which the Kd in assay [1] is 1 nM; in assay [4] it was 3.4 nM. In assay [2], the IC50 was 620 ± 30 nM. Further, the “in vitro cleavage of Citrine-MoATG8-ShR sensor, western blot” value (shortened to “in vitro cleavage”) in assay [3] was “strong inhibition of the MoATG4-mediated cleavage of MoATG8 by EB and its analogs”.

In the case of `O=C1c2ccccc2[Se](=O)N1c1ccccc1` (centres unmarked) [EO, ebselen oxide], half-maximal inhibition in assay [2] (IC50) was put at 500 ± 30 nM. Further, the “in vitro cleavage” value in assay [3] was “strong inhibition of the MoATG4-mediated cleavage of MoATG8 by EB and its analogs”.

The compound `Cc1ccc(-n2sc3ccccc3c2=O)cc1` [PT, 2-(4-methylphenyl)−1,2-benzisothiazol-3(2H)-one] registered an IC50 in assay [2] of 1790 ± 240 nM. The “in vitro cleavage” value in assay [3] was “strong inhibition of the MoATG4-mediated cleavage of MoATG8 by EB and its analogs”.

These data come from article PMC10904834 (Nature Communications, 2024).
